In US12599666B2, “Photolytic compounds and triplet-triplet annihilation mediated photolysis” (University of Massachusetts, priority 2019, dated 2026):
Several values for one entry are separate records, joined by “and”; a condition that tells them apart may be missing. Equal entries are not always repeated. Where two headings read alike, the source gives them in different places. Marks after values point to notes of the source that are not given here.

Legend:
[1] = Photolytic molecule experiment: TTAP photolytic reaction in solution under LED, HPLC yield; type: physicochemical
Protocol: Photolytic molecule experiment: The NIR LED (720 nm), far red LED (650 nm), green LED (530 nm), blue LED (476 nm) and deep blue (455 nm) were used for photolytic reactions. […] Then, the solution was excited with a LED (20 mW/cm^2) at 37° C. After the photolytic reaction, the raw product was dried and re-dissolved in CH3CN/H2O=(2/1, v/v) and HPLC was used to analyze the yield of product.

[2] = Stern-Volmer photoluminescence quenching of photosensitizers by PPGs-X; type: physicochemical
Protocol: The Stern-Volmer quenching plots experiment (ksv): photoluminescence of photosensitizers (PtTNP, PdTPBP, PtOEP, and Ir(ppy)3) in the presence of different concentrations of PPGs (BDP, perylene, anthracene and coumarin). The mixed solutions were degassed for at least 15 min with Ar in toluene. The ksv constants were calculated with eq 1, where 1o and It stand for photoluminescence intensity of photosensitizer in the absence of PPGs-X and the photoluminescence intensity of photosensitizer in the presence PPGs-X. Q is the concentration of PPGs-X. Biomolecular quenching constants (kq) were calculated by eq2. The Tr is the phosphorescence lifetime of photosensitizer in argon.

[3] = TTA upconversion quantum yield; type: physicochemical
Protocol: The upconversion quantum yields (ΦUC): The upconversion quantum yields were calculated with the eq 3, where ΦUC and Φstd stand for upconversion luminescence quantum yield of sample TTA-UC and fluorescence quantum yield of reference compounds, respectively. Aunk and Astd stand for absorbance of the TTA-UC and reference compound, respectively. Iunk and Istd stand for integrated upconversion luminescence intensity of the TTA-UC and fluorescence intensity of reference compounds, respectively. ηunk and μstd stand for the refractive index of water. The equation is multiplied by a factor of 2 to make the maximum quantum yield of two unified emitters.
The upconversion experiments were deaerated with argon for ca. 15 min before measurement and the argon gas flow was kept during the measurement.

[4] = Photophysical parameters of Sen and PPGs (UV-vis absorption, emission, energy levels); type: physicochemical; set-up: λabs maximum absorption wavelength / λem maximum emission wavelength: unit not given here
Protocol: Characterization: ^1H NMR spectra were recorded with a Bruker 500 MHz spectrometer. UV-Vis spectra were recorded on an Agilent Cary-5 spectrophotometer. Steady-state fluorescence spectra were measured on a HITACHI F-7000 spectrometer. […] The sample for TEM measurement was prepared by dropping the solution onto a carbon-coated copper grid following negative staining with 2.0% (w/v) phosphotungstic acid. The particle size and size distribution were measured by using dynamic light scattering (DLS) on a Malvern Nano-ZS particle size analyzer, excitation wavelength 532 nm. All samples in the Stern-Volmer quenching plots experiments were deaerated with argon for ca. 15 min before measurement and the gas flow was maintained during the measurements. For the TTA upconversion spectra measurement, the diode pumped solid-state laser (650 nm, continues wave, CW, Hi-Teach company, China) was used as the excitation light source and a modified spectrofluorometer was used to record the upconversion spectra. For the prodrug photolytic experiment, an All LED (Mightex Company) was used as the excitation light source.
From the absorption and emission spectra of Sen and PPGs, the triplet and singlet energy levels of PPG and Sen can be calculated. The maximum emission wavelength of phosphorescence is the triplet excited state energy level (T1) of the Sen. The maximum emission wavelength of fluorescence is the singlet excited state energy level (S1) of the PPGs. Moreover, according to the literature, we know the triplet excited energy levels of PPGs. The detail information is always in […]

[5] = Photocleavage quantum yield / photolytic quantum efficiency calculation
Source text: We compared photolytic quantum efficiency of the widely used PPG of Cou by using the UCNPs as phototransducer.

[6] = PPGs; from the literature; listed as Py; cited from earlier work

SMILES: CC(=O)OCc1ccc2c3cccc4cccc(c5cccc1c52)c43 [compound 8]
- photolytic yield [1]: 70%
- Yield (HPLC) of photolytic reaction ([1]; PdTPBP, air, room light, 60 min): No reaction
- Yield (HPLC) of photolytic reaction ([1]; PdTPBP, argon, room light, 60 min): No reaction
- Yield (HPLC) of photolytic reaction ([1]; PdTPBP, dark, argon, 1 h): No reaction
- photolytic yield ([1]; PdTPBP, far-red LED light (20 mW/cm^2, 650 nm)): 87% and 87.1%
- Yield (HPLC) of photolytic reaction ([1]; PdTPBP, light, air, 1 h): No reaction
- Yield (HPLC) of photolytic reaction ([1]; PdTPBP, light, argon, 1 h): 87.1%
- photolytic yield ([1]; PtTNP, NIR LED light (20 mW/cm^2, 720 nm, 1 h)): 14.7%
- Yield (HPLC) of photolytic reaction ([1]; PtTNP, dark, argon, 1 h): No reaction
- Yield (HPLC) of photolytic reaction ([1]; PtTNP, light, air, 1 h): No reaction
- Yield (HPLC) of photolytic reaction ([1]; PtTNP, light, argon, 1 h): 14.7%
- Yield (HPLC) of photolytic reaction ([1]; compound only (no PdTPBP), far red light, argon, 1 h): No reaction
- Yield (HPLC) of photolytic reaction ([1]; compound only (no PtTNP), NIR light, argon, 1 h): No reaction
- Yield (HPLC) of photolytic reaction ([1]; compound only, air, blue light (445 nm, 20 mW/cm^2), 60 min): 59%
- Yield (HPLC) of photolytic reaction ([1]; compound only, air, dark, 60 min): No reaction
- Yield (HPLC) of photolytic reaction ([1]; compound only, air, room light, 60 min): No reaction
- quenching of the photoluminescence of PdTPBP ([2]; PdTPBP): obvious quenching effects
- ksv (bimolecular quenching constant) ([2]; PdTPBP as sensitizer): 1.09 × 10^9 g M^−1S^−1
- ksv Stern-Volmer quenching constant ([2]; PdTPBP as sensitizer): 243000 g/M
- quenching of the photoluminescence of PtOEP ([2]; PtOEP): significant quenching
- ksv (bimolecular quenching constant) ([2]; PtOEP as sensitizer): 2.9 × 10^9 j M^−1S^−1
- ksv Stern-Volmer quenching constant ([2]; PtOEP as sensitizer): 262000 J/M
- quenching of the photoluminescence of PtTNP ([2]; PtTNP): quenching effect
- upconversion quantum yield ([3]; paired with PdTPBP): 5.8%
- upconversion quantum yield ([3]; paired with PtOEP): 9.5%
- upconversion quantum yield ([3]; paired with PtTNP): 0.05%
- 2 × T1 − S1 ([4]; PPGs): 0.26 eV
- S1 singlet excited state ([4]; PPGs, from maximum fluorescence emission): 2.78 eV
- λabs maximum absorption wavelength ([4]; in toluene, 10 μM): 440
- λem maximum emission wavelength ([4]; in toluene, 10 μM): 445
- ξ molar extinction coefficient ([4]; in toluene, 10 μM): 4.0 10^4 M^−1 cm^−1
- increase of ηp (TTAP) over ηp (direct) ([5]; PdTPBP): 282%
- ε2 × Φp: ε (Sen) × Φp (PPGs); ηp (TTAP) ([5]; PdTPBP as sensitizer): 10230 ^g
- ε2 × Φp: ε (Sen) × Φp (PPGs); ηp (TTAP) ([5]; PdTPBP as sensitizer, listed as Py): 10230
- increase of ηp (TTAP) over ηp (direct) ([5]; PtOEP): 179%
- ε2 × Φp: ε (Sen) × Φp (PPGs); ηp (TTAP) ([5]; PtOEP as sensitizer): 6510 ^j
- ε2 × Φp: ε (Sen) × Φp (PPGs); ηp (TTAP) ([5]; PtOEP as sensitizer, listed as Py): 6510
- increase of ηp (TTAP) over ηp (direct) ([5]; PtTNP): 342%
- ε2 × Φp: ε (Sen) × Φp (PPGs); ηp (TTAP) ([5]; PtTNP as photosensitizer): 12400^h
- ε2 × Φp: ε (Sen) × Φp (PPGs); ηp (TTAP) ([5]; PtTNP as photosensitizer, listed as Py): 12400
- ε1 × Φp: ε (PPGs) × Φp (PPGs); ηp (direct) ([5]; direct short wavelength illumination): 3627
- T1 triplet excited state [6]: 1.52 ^m eV and 1.52 eV
